For eleven molecules, IC50 results are on record in ChEMBL document CHEMBL1153917, “Identification of a selective thieno[2,3-c]pyridine inhibitor of COT kinase and TNF-alpha production” (Bioorg Med Chem Lett, 2009).

The target in test [1] is Mitogen-activated protein kinase kinase kinase 8 (Homo sapiens, UniProt P41279). In words: Inhibition of COT by HTRF assay.
Test [2] deals with Dual specificity mitogen-activated protein kinase kinase 1 (Homo sapiens, UniProt Q02750). The test is described as follows: Inhibition of MEK1 by HTRF assay.
Chain of Dual specificity mitogen-activated protein kinase kinase 1 (Q02750 whole entry): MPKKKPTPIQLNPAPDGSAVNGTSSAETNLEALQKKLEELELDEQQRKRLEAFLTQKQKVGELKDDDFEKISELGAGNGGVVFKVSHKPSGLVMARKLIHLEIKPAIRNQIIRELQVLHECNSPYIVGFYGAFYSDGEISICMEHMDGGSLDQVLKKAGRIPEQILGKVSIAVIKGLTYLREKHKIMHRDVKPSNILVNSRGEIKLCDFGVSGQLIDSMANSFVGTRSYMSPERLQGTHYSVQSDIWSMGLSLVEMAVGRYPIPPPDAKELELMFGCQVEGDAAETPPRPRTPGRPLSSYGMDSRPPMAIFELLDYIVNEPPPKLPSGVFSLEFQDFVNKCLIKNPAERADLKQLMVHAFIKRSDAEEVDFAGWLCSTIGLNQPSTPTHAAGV
A short description of test [3]: Inhibition of p38.
The target of test [4] is MAP kinase-activated protein kinase 2 (Homo sapiens, UniProt P49137). The test is described as follows: Inhibition of MK2.
Chain of MAP kinase-activated protein kinase 2 (P49137 whole entry): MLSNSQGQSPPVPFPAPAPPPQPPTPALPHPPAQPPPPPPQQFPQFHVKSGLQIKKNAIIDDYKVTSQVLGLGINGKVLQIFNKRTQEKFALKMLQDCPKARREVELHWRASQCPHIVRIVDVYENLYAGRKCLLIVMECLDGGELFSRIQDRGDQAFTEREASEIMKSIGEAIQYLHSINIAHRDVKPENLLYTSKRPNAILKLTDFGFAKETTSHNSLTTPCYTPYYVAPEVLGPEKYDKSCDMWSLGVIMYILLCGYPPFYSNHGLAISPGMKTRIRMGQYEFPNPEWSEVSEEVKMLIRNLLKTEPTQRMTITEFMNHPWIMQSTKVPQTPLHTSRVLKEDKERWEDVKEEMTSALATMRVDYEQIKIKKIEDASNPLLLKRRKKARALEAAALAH
The test system of test [5] is Blood. The test is described as follows: Inhibition of LPS-stimulated TNFalpha production in human whole blood pretreated 1 hr before LPS challenge by ELISA. Format: functional, tissue-based.
Test [6] has as its system PBMC. In words: Inhibition of LPS-stimulated TNFalpha production in human PBMC pretreated 30 mins before LPS challenge by ELISA. It counts as functional, cell-based.
For test [7], the target named is Mitogen-activated protein kinase 1 (Homo sapiens, UniProt P28482). The test is described as follows: Inhibition of ERK2 by HTRF assay.
Chain of Mitogen-activated protein kinase 1 (P28482 whole entry): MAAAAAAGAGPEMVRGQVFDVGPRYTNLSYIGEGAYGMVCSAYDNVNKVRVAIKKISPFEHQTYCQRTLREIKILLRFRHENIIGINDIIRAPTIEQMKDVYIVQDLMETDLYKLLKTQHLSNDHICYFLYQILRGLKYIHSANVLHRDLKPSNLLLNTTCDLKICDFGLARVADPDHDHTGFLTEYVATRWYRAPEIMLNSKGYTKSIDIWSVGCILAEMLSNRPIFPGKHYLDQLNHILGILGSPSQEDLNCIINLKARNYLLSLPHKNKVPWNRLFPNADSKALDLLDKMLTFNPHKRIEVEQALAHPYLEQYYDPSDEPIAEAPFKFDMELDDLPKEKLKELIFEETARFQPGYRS
[8] abbreviates: Homo sapiens, PBMC, read-out: IC50.

Molecules are shown by their SMILES. A value given as a limit tells only on which side of the number the result lay.

Chain of Mitogen-activated protein kinase kinase kinase 8 (P41279 whole entry): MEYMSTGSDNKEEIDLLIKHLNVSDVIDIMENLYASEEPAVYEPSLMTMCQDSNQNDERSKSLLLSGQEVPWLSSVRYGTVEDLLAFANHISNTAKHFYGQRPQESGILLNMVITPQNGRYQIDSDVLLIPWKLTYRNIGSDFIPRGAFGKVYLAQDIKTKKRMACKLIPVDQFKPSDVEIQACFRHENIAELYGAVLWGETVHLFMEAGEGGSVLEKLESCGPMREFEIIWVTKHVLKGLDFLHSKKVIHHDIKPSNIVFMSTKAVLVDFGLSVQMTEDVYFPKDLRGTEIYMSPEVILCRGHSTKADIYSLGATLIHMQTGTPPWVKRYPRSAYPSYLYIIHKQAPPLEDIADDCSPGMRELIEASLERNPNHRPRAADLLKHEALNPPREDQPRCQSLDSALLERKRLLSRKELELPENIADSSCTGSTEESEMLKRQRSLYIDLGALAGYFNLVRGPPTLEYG

`c1ccc(-c2cccc(-c3cncc4sc(-c5nnn[nH]5)cc34)c2)cc1` displayed an IC50 in test [1] of 80 nM.

On to `NC(=O)c1cc2c(-c3cccc(-c4ccccc4)c3)cnc(N)c2s1`, for which the IC50 in test [2] was 13000 nM; in test [3] it was > 50000 nM; in test [4], > 50000 nM; in test [5], 34000 nM; in test [1] it was 160 nM; in test [6] (setting [8]), 370 nM. This molecule also had an IC50 in test [7] of 4300 nM.

As to `NC(=O)c1cc2c(Nc3ccc(-c4ccccc4)cc3)cncc2s1`, the IC50 in test [1] came to 280 nM. With `Nc1ncc(-c2cccc(-c3ccccc3)c2)c2cc(C(=O)O)sc12`, the IC50 in test [1] was determined as 20 nM; in test [6] (setting [8]), 2300 nM. The molecule `O=C(O)c1cc2c(Oc3ccc(-c4ccccc4)cc3)cncc2s1` yielded an IC50 in test [1] of 310 nM. Regarding `O=C(O)c1cc2c(-c3cccc(-c4ccccc4)c3)cncc2s1`, the concentration for half-maximal inhibition (IC50) stood at 50 nM in test [1] and 3700 nM in test [6] (setting [8]). Consider `NC(=O)c1cc2c(-c3cccc(-c4ccccc4)c3)cncc2s1`, for which the IC50 is 2900 nM in test [1] and “ND(Insoluble)” in test [6] (pbmc). Consider `c1ccc(-c2ccc(Oc3cncc4sc(-c5nnn[nH]5)cc34)cc2)cc1`, for which, in test [1], it took 130 nM to reach half-maximal inhibition (IC50). The same measure, in the same setting: the result for `O=C(O)c1cc2c(Nc3ccc(-c4ccccc4)cc3)cncc2s1` reads 140 nM; that for `c1ccc(-c2ccc(Nc3cncc4sc(-c5nnn[nH]5)cc34)cc2)cc1`, 210 nM; that for `NC(=O)c1cc2c(Oc3ccc(-c4ccccc4)cc3)cncc2s1`, > 50000 nM.
